Experiment in all cases: chlorophyll a fluorescence induction (OJIP), inhibition of 1-VJ (QA to QB electron transfer) in living algal cells
Assay type in all cases: cell-based
Holding throughout (conditions): read-out: Atrazine / I50×10^-7 M / (±SE)

In test [1] the target is T1, photosystem II (PSII) D1 protein (Chlamydomonas reinhardtii, UniProt P07753, L200I).
T1 construct: gene psbA; full-length D1 from intronless psbA in the chloroplast, assembled in native PSII (with D2 and other subunits) in living algal cells; D1 mutants by ep-PCR of Ala153-Ala294 region and biolistic transformation of Del1
The text has this: (§1) chlorophyll a fluorescence induction (OJIP), inhibition of 1-VJ (QA to QB electron transfer) in living algal cells on photosystem II (PSII) D1 protein

Test [2] deals with T2, photosystem II (PSII) D1 protein (Chlamydomonas reinhardtii, UniProt P07753).
T2 construct: gene psbA; full-length D1 from intronless psbA in the chloroplast, assembled in native PSII (with D2 and other subunits) in living algal cells; D1 mutants by ep-PCR of Ala153-Ala294 region and biolistic transformation of Del1
Source text: as §1

Test [3] deals with T3, photosystem II (PSII) D1 protein (Chlamydomonas reinhardtii, UniProt P07753, G207S).
T3 construct: gene psbA; full-length D1 from intronless psbA in the chloroplast, assembled in native PSII (with D2 and other subunits) in living algal cells; D1 mutants by ep-PCR of Ala153-Ala294 region and biolistic transformation of Del1
Source text: as §1

The target in test [4] is T4, photosystem II (PSII) D1 protein (Chlamydomonas reinhardtii, UniProt P07753, F211S/P162S).
T4 construct: gene psbA; full-length D1 from intronless psbA in the chloroplast, assembled in native PSII (with D2 and other subunits) in living algal cells; D1 mutants by ep-PCR of Ala153-Ala294 region and biolistic transformation of Del1
Source text: as §1

In test [5] the target is T5, photosystem II (PSII) D1 protein (Chlamydomonas reinhardtii, UniProt P07753, I281T).
T5 construct: gene psbA; full-length D1 from intronless psbA in the chloroplast, assembled in native PSII (with D2 and other subunits) in living algal cells; D1 mutants by ep-PCR of Ala153-Ala294 region and biolistic transformation of Del1
Source text: as §1

The target of test [6] is T6, photosystem II (PSII) D1 protein (Chlamydomonas reinhardtii, UniProt P07753, M172L).
T6 construct: gene psbA; full-length D1 from intronless psbA in the chloroplast, assembled in native PSII (with D2 and other subunits) in living algal cells; D1 mutants by ep-PCR of Ala153-Ala294 region and biolistic transformation of Del1
Source text: as §1

pIC50: −log10 of the molar value.

With `CCNc1nc(Cl)nc(NC(C)C)n1` [Atrazine, 2-chloro-4-(ethylamine)-6-(isopropylamine)-s-triazine], the pIC50 in test [1] is 6.74; in test [2] it was 6.62; in test [3], 6.68; in test [4], 5.71; in test [5] it was 6.70; in test [6] it was 6.66.

The values are drawn from publication PMC3629139, “A Powerful Molecular Engineering Tool Provided Efficient Chlamydomonas Mutants as Bio-Sensing Elements for Herbicides Detection” (PLoS ONE, 2013).
